Reference: ChEMBL document CHEMBL1212895

How the values were obtained:
[1] = target: T1, Estrogen receptor (Homo sapiens) (UniProt P03372); conditions: MCF7, 25 uM
T1 sequence (whole entry): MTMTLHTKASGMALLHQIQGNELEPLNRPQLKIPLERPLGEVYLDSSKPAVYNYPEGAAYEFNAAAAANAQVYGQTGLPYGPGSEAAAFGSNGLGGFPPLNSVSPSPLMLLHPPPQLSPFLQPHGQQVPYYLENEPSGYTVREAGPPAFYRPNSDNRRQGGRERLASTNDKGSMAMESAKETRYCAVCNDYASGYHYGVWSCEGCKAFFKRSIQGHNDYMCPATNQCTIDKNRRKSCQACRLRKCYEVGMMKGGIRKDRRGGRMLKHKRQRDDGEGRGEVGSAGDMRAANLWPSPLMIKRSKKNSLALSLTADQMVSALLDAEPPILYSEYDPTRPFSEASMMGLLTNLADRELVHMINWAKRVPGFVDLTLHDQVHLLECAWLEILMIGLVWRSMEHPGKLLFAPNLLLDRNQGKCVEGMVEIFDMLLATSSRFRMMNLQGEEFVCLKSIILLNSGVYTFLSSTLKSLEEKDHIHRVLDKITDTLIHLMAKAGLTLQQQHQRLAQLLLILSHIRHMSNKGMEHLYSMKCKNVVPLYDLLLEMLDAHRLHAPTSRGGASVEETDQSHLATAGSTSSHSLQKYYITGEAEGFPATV

[2] = target: T1, Estrogen receptor (Homo sapiens); conditions: MCF7, 10 uM

Structure (SMILES)	inhibition [1]	inhibition [2]
O=c1c(-c2ccc(O)cc2)coc2cc(OC3CCCC3)ccc12	89.8%	54.1%
O=c1c(-c2ccc(O)cc2)coc2cc(O)ccc12		17.2%
CC(C)Oc1ccc2c(=O)c(-c3ccc(O)cc3)coc2c1	68.1%	33.4%
CC1(C)C=Cc2c(ccc3c(=O)c(-c4ccc(O)cc4)coc23)O1	100%	54.6%

The remaining lines, values ahead:

inhibition [1]	inhibition [2]	Structure (SMILES)
49.8%		CCCCOc1ccc2c(=O)c(-c3ccc(O)cc3)coc2c1
46.4%		CCCCCCOc1ccc2c(=O)c(-c3ccc(O)cc3)coc2c1
91.3%	60.5%	CC(C)COc1ccc2c(=O)c(-c3ccc(O)cc3)coc2c1
18.8%		CCOc1ccc2c(=O)c(-c3ccc(O)cc3)coc2c1
41.4%		CCCOc1ccc2c(=O)c(-c3ccc(O)cc3)coc2c1
33.2%		COc1ccc2c(=O)c(-c3ccc(O)cc3)coc2c1
